Measured values: US6399827B1, “Quaternary ammonium phosphate compound and method of preparing same” (SK Chemicals, priority 1997, dated 2002)

Columns and labels:
Assay type in all cases: cell-based
Bacteria = assay: Biocidal effect test (MIC), bacteria; settings: serial dilution, 10^4 cfu/ml, 48 hours at 30° C., nutrient broth, turbidity read visually, range over 8 bacterial strains; for MIC: read-out: Minimal Inhibition Concentration (ppm) Bacteria
Experimental: (§1) This test was carried out for the purpose of measuring a biocidal effect of the compounds obtained from examples 1, 3 and 4. A test material was diluted using a serial dilution method in a 96-multiwelled plate. 10^4 cfu/ml of microbes were inoculated in the diluted solution. After the microbes were cultivated for 48 hours at 30° C., MIC (Minimal Inhibition Concentration of microorganisms) was visually observed to decide whether or not microbial growth occurred from the turbidity. The growth medium was nutrient broth, DIFCO, and the strains used were as follows.
Enterobacter aerogenes ATCC 13048, Escherichia coli ATCC 11229, Micrococcus luteus ATCC 9431, Pseudomonas aeruginosa ATCC 15442, Shigella sonnei ATCC 9290, Staphylococcus epidermis ATCC 155, Staphylococcus aureus ATCC 6538 and Bacillus subtilis ATCC 6984.

Yeasts = assay: Biocidal effect test (MIC), yeasts; settings: serial dilution, 10^4 cfu/ml, 48 hours at 30° C., nutrient broth, turbidity read visually, range over 4 yeast strains; for MIC: Saccharomyces cerevisiae, read-out: Minimal Inhibition Concentration (ppm) yeasts
Experimental: as §1
Candida albicans ATCC 10231, Rhodotorula rubra ATCC 9449, Cryptococcus neoformans ATCC 34144 and Saccharomyces cerevisiae ATCC 9763.

Fungi = assay: Biocidal effect test (MIC), fungi; settings: serial dilution, 10^4 cfu/ml, 48 hours at 30° C., nutrient broth, turbidity read visually, range over 4 fungal strains; for MIC: read-out: Minimal Inhibition Concentration (ppm) fungi
Experimental: as §1
Penicillium citrinum ATCC 98404, Trichoderma viridae ATCC 1287, Rhizopus oryzae ATCC 10404 and Aspergillus niger ATCC 9642.

In the case of `CC(C)(C)CC(C)(C)c1ccc(OCCOCC[N+](C)(C)Cc2ccccc2)cc1.[Cl-]` [A, N-dimethyl-N-[p-(α,α,γ,γ)-tetramethylbutylphenoxy]ethoxy ethyl-N-benzyl chloride], the “Minimal Inhibition Concentration (ppm) Bacteria” value (Bacteria) was 12.5˜25 ppm, the “Minimal Inhibition Concentration (ppm) yeasts” value (Yeasts) was 12.5˜25 ppm and the “Minimal Inhibition Concentration (ppm) fungi” value (Fungi) was 25˜100 ppm.
With `CCCCCCCCCCCCCC[N+]1(Cc2ccccc2)CCOCC1.Cl.N.[Cl-]` [B, 4-benzyl-4-tetradecyl morpholinium ammonium chloride] the MIC (Bacteria) was 6.3 to 12.5 µg/mL, the MIC (Yeasts) was 6.3 to 25 µg/mL and the MIC (Fungi) was 25 to 100 µg/mL.
For `CC(C)(C)CC(C)(C)c1ccc(OCCOCC[N+](C)(C)Cc2ccccc2)cc1.O=P([O-])(O)O` [example 1, N-dimethyl-N-[p-(α,α,γ,γ)-tetramethylbutylphenoxy]ethoxy ethyl-N-benzyl ammonium phosphate], the “Minimal Inhibition Concentration (ppm) Bacteria” value (Bacteria) was 6.3˜12.5 ppm, the “Minimal Inhibition Concentration (ppm) yeasts” value (Yeasts) was 6.3˜12.5 ppm and the “Minimal Inhibition Concentration (ppm) fungi” value (Fungi) was 25˜100 ppm.
`CCCCCCCCCCCCCC[N+]1(Cc2ccccc2)CCOCC1.N.O=P([O-])(O)O` [example 4, 4-benzyl-4-tetradecyl morpholinium ammonium phosphate] gave an MIC (Bacteria) of 6.3 to 12.5 µg/mL, an MIC (Yeasts) of 12.5 to 25 µg/mL and an MIC (Fungi) of 25 to 100 µg/mL.
